Measurements as given in ChEMBL document CHEMBL3507680, “University of Dundee, Gates Library screen for HepG2 cell viability”.

Assay: Human HepG2 cell viability assay in 384 well format
Assay type: toxicity, cell-based
Design: dose 125 nL, time 70.5 hour; cytotoxicity at 70.5 h: concentration not given beside the values
Conditions: HepG2 cells, read-out: Inhibition

Structure (SMILES)	cytotoxicity at 70.5 h [%]
Cc1ccc(NC2CCN(C(=O)CC3CCCO3)CC2)nn1 (configuration not stated)	-11.8
CC(C)C(C(=O)N1CCN(Cc2ccccn2)CC1)n1cncn1 (configuration not stated)	-10.2
Cc1nn(C)c(Cl)c1C1CCCN1CC(=O)NCc1ccccn1 (configuration not stated)	-7.66
O=c1[nH]c2c(c(=O)n1C1CCCCC1)CCC2Nc1ccc(Cl)cc1 (configuration not stated)	-12.5
Cc1ccc(-c2nc(C(=O)N3CCN(C(=O)N(C)C)CC3)cs2)c(C)c1	-9.21
COCCn1ccnc1C1CCCN(C(=O)CSc2nnc(C)o2)C1 (configuration not stated)	-5.99
CN(CC(=O)NCC1CCCO1)Cc1nc2c(s1)CCCC2 (configuration not stated)	25.9
COc1ccc(C)cc1-n1c(COC(C)C)n[nH]c1=O	-18.9
O=C(COC1CCCC1)N1C[C@@H]2COC[C@]2(COc2cccnc2)C1	3.14
c1csc(N2CCN(Cc3cc4n(n3)CCNC4)CC2)n1	1.93
Cn1cc(C[C@H]2[C@H](N3CCOCC3)CCN2C2CCOCC2)cn1	-13.7
CC(NC(=O)N(C)Cc1cccc(OC(F)F)c1)c1nncn1C (configuration not stated)	-5.84
COc1cccc(OC)c1-c1ccnc2cc(CC(=O)NC3CC3)nn12	-11
CCN1CCOC(CNCc2ccccc2OCc2cccnc2)C1 (configuration not stated)	0.0939
COc1ccc(C(C)CCNC2CCN(c3ccccn3)CC2)cc1 (configuration not stated)	22
CN(CCC(F)(F)F)C(=O)[C@H]1CSCN1C(=O)OC(C)(C)C	-1.73
COc1cccc(COCC(=O)N2CCN(CC(C)(C)O)CC2)c1	4.32
CCc1nc(C)sc1CN1CC[C@@](O)(C2CC2)[C@H](C)C1	-7.56
Cc1nccc(N[C@H]2CN(C(=O)CN3CCCC3=O)C[C@@H]2C(C)C)n1	-19.5
Cc1nc(CN2C(=O)CC[C@@H]3[C@H]2CCN3C(=O)C2CCCO2)cs1 (some centres not stated)	-8.01
O=C(COc1ccccc1Br)N1CCOc2ccncc21	-3.18
CC(=O)NCCNC(=O)C1(Oc2cccnc2C)CCNCC1	-5.79
COCCN1CCC(CN(CC2CCCO2)C(=O)COC)CC1 (configuration not stated)	13.8

Structure (SMILES)	cytotoxicity at 70.5 h [%]
CCSc1cc(C(=O)NC2CCN(C(=O)c3ccccc3)CC2)ccn1	-17.6
O=C(O)c1cc(-c2cccs2)nc2c(Cl)cnn12	-5.65
CN(C)C(=O)c1cccnc1SCc1ccccc1Cl	1.28
O=C(Cc1nc(-c2ccncc2)n[nH]1)N1CCOCC1	-14.8
COCc1ccc(C(=O)N2CCCN(Cc3cscn3)CC2)cc1	-6.01
Cc1cnc(C(=O)N2C[C@@H]3CN(CC4CCCC4)CCO[C@@H]3C2)cn1	25.7
O=C(C1CC1)N1CCN(c2ccc(-n3cncn3)nn2)CC1	-3.85
CCc1nnc2n1CCN(C(=O)c1ccc3c(c1)[nH]c(=O)n3C)C2	-2.36
Cc1cc(NC(=O)NCc2ccccc2OC(F)F)n(C)n1	-5.54
CC(=O)N1CCC[C@@H](NCc2ccc(F)cc2)[C@@H]1c1ccc(C)s1	-8.87
COc1ccc(CN2CC[C@H]3[C@H]2CC(=O)N3Cc2cccc(C)n2)cc1	-7.27
Cc1occc1C(=O)N1C[C@H](Oc2ccccn2)[C@H]2OCCC[C@H]21	-10.8
O=C(Nc1cn[nH]c1)c1ccc(O)nc1	1.6
CC(C)Oc1ccc2c(NC(=O)CN(C)C)nn(CC(F)(F)F)c2c1	-19
CCOCCCNC(=O)Nc1ccc(F)c(C(N)=O)c1	6.9
CC(c1nc(C2CC2)no1)N1CCN(Cc2cccc(C#N)c2)CC1 (configuration not stated)	-2.01
Cc1nc(CNCc2c(C(C)C)nn(C)c2N2CCOCC2)cs1	-7.63
Cc1ccc(C(=O)N2CCC(c3nccn3C(C)C)CC2)c(=O)[nH]1	-6.37
COc1cc2c(cc1C(=O)N1CCCCC1c1ccccn1)CCC2 (configuration not stated)	-24
O=C(CCc1cc(O)no1)N1CCCC(COc2ccc(F)cc2)C1 (configuration not stated)	-3.78
CC(=O)N1CC[C@H]2OCC[C@@H](C(=O)NCc3ccco3)[C@H]2C1	-12.4
COCCN1CCCC12CCCN(c1ncccn1)C2 (configuration not stated)	-2.34
CCN1CCC2(CN(C(=O)N(C)C)CC23CCN(CC2CC2)CC3)C1=O (configuration not stated)	18.4

Structure (SMILES)	cytotoxicity at 70.5 h [%]
Cc1ccc(C(=O)O)c(N2CC(C)(C)[C@@](C)(O)C2)n1	-10.6
Cc1cccc(C)c1OCCCN1CCC(n2cncn2)CC1	3.77
Cc1ncc2c(n1)CCN(C(=O)Cc1c(C)noc1C)C2	22.9
CCOCC(=O)N1CCC2(CC1)COCCN2CCOC	-1.68
Cc1ccc(CNC(=O)c2ccc(S(=O)(=O)N3C[C@@H]4C[C@H]3CN4)cc2)o1	-2.7
COC[C@@H]1CC[C@H]2[C@H](CCN2S(=O)(=O)Cc2ccccc2)O1	-1.62
Cc1cnn(CC2CCCN2Cc2c(C)noc2C)c1 (configuration not stated)	-3.04
Cc1cc(CN(C)C(=O)c2ccc(F)c(C(F)(F)F)c2)no1	-1.4
CCN1CCCC(C)(C(=O)NCc2nnnn2-c2ccccc2)C1 (configuration not stated)	-5.49
CN(C)C(=O)N1CCN(Cc2noc(Cc3ccccc3)n2)CC1	-5.82
Cc1cc(CN2CCN(C(=O)NCc3nc(C)cs3)CC2)on1	-11.7
O=C(CCN1CCCCC1)Nc1c2c(cc3c1CCC3)CCC2	-1.77
CCCC(=O)NCC(=O)NC1CC(C)(C)Cc2oc(C)cc21 (configuration not stated)	-5.41
COc1ccccc1CNc1ccc2nncn2n1	-11.2
CC(=O)NCC(=O)N1Cc2ccnn2CC(COCCN(C)C)C1 (configuration not stated)	-6.24
Cc1nc(C)n(CC2CN(CCOc3ccc(C#N)cc3)CCO2)n1 (configuration not stated)	-13.3
N#Cc1cnc2cc(F)cc(F)c2c1NC1CCN(CC(N)=O)CC1	-4.4
N[C@@H]1CCC[C@@H](Oc2ccc(F)cc2Oc2cccc(F)c2)[C@@H]1O	-1.82
COc1cc(N[C@@H](Cc2ccccc2)C(N)=O)ncn1	-5.19
O=C1[C@H]2CN(C3CCOCC3)C[C@H]2CN1Cc1cccc(F)c1	0.427
CCC(NS(=O)(=O)c1ccc(C(=O)NC2CC2)cc1)c1cnn(C)c1 (configuration not stated)	-8.25
COCCNS(=O)(=O)c1ccc(Cl)c(C(=O)N(C)Cc2sccc2C)c1	-12.1
COCCN(Cc1ccc(F)cc1Cl)C(=O)c1cc(C)n[nH]1	-0.839

Structure (SMILES)	cytotoxicity at 70.5 h [%]
Cc1nc2c(c(=O)n1C)CCN(Cc1cc3cc[nH]c3cn1)CC2	10.6
Nc1nc(N)c2c(n1)OC1(CCN(C(=O)CC3CCCCN3)CC1)C2 (configuration not stated)	-5.34
CCOc1ccccc1-c1cc(N)[nH]n1	-5.47
Cc1ccccc1SC1CCN(C(=O)CCCS(N)(=O)=O)CC1	-5.95
CC(=O)N1CCCC(C(=O)NCCc2csc(-c3ccncc3)n2)C1 (configuration not stated)	-5.2
O=C(c1ccoc1)N1CCc2c(COCC3CC3)cncc2C1	14.9
CC(C)(CC(=O)N(CC(N)=O)C1CCCC1)c1ccccc1	-9.09
CCS(=O)(=O)N1CCC(c2nccn2Cc2ccccn2)CC1	-5.3
CC(C)c1ncc2c(n1)CN(Cc1nc(-c3ccsc3)no1)CC2	-13.7
Cc1occc1C(=O)N1CCc2c(CNS(C)(=O)=O)cncc2C1	-20.9
Cc1nnc2n1CCN(C(=O)C(C)Oc1ccc(C#N)cc1)C2 (configuration not stated)	-12.4
O=C1NCC(CN2CCc3onc(-c4ccc(C(F)(F)F)cc4)c3C2)O1 (configuration not stated)	-17.3
CCN(CC)c1ccc(C(=O)NCc2cccnc2-n2cncn2)cn1	-10.7
CN1CCCCC12Cc1ccccc1CN(C(=O)c1ccccc1)C2 (configuration not stated)	-5.36
Cc1nc(C2CCCCN2S(C)(=O)=O)no1 (configuration not stated)	-13.4
COCC(O)CN1CCC(NC(=O)c2ccccc2Cl)CC1 (configuration not stated)	-0.503
Cc1cnc(N2C(=O)CSC2c2ccc(F)cc2)s1 (configuration not stated)	-5.25
Cc1nc(CN(C)Cc2cn[nH]c2-c2ccc(F)cc2)c[nH]1	5.97
Cc1cc(-c2cnc(NC3CCCC3)nc2-c2ccc(C)o2)on1	-5.77
Cc1cccc(-c2nc(CN3CCCCC3Cn3cncn3)no2)c1 (configuration not stated)	-4.62
CC(C)c1cc(C(=O)N2CCCC3(CCNC3)C2)no1 (configuration not stated)	-3.49
CNc1nc(CNC(=O)Nc2ccccc2-c2noc(C)n2)cs1	7.32
Cc1cc(C(=O)N2CCCC(O)(CN3CCCC3)C2)ccc1Cl (configuration not stated)	1.99

Structure (SMILES)	cytotoxicity at 70.5 h [%]
COC(=O)c1ccc(OCC(=O)N(C)Cc2ccsc2)c(OC)c1	-5.54
CNc1cncc(C2CCCN2S(=O)(=O)c2cccc(F)c2)n1 (configuration not stated)	-2.79
Cc1nc(CN2CCCC(NCc3cnc(C(C)(C)C)s3)C2)no1 (configuration not stated)	2.91
Cc1cccc(CN2C[C@@H]3COC[C@]3(COCC(=O)N(C)C)C2)n1	-3.44
O=C1CCN(Cc2cnc3c(-c4ccccc4)cnn3c2)CCN1	-9.5
COCc1ccc(CNC(=O)CN2CCc3ccccc32)cc1	1.24
COc1ccc(C(CO)NC(=O)Nc2cccnc2)cc1 (configuration not stated)	12.6
Cc1cccc(-n2cnc(Cl)c2CO)c1	-0.946
CN(C)Cc1cn2c(n1)CN(C(=O)Cc1ccsc1)CC2	-0.503
CN(C)c1cc(C2CCN(C(=O)c3cnn(C)c3)CC2)ccn1	-4.9
CCN(CC)S(=O)(=O)c1ccc2c(c1)N(Cc1cccnc1)C(=O)CS2	-4.53
Cc1ccc(C(=O)N2CCC3(CC2)COC(COc2cccnc2)C3)o1 (configuration not stated)	-7.65
CC(C)Cc1noc(CN2CCC(NC(=O)c3cccs3)CC2)n1	-8.58
Cc1ccn(CCC(=O)NCCc2ccco2)n1	-3.53
O=C1CSC(C(F)(F)F)c2c(O)nn(C3CCCCC3)c2N1 (configuration not stated)	15.2
Cn1nnn(-c2ccc(NS(=O)(=O)c3ccc(F)c(Cl)c3)cc2)c1=O	-2.9
Cc1nc(N2CCCC2)nc(C)c1NS(C)(=O)=O	0.704
CC(C)CN1CCc2[nH]cnc2C12CCN(C(=O)c1cnn(C)c1)CC2	-7.51
CC(C)CCC(C)NC(=O)CN1C=Nc2ccccc2S1(=O)=O (configuration not stated)	-8.83
COCC(=O)N1C[C@@H](OCc2ccncc2)[C@@H]2OCCC[C@@H]21	52.2
